Reference: ChEMBL document CHEMBL5696439 (Cancer Res, 2010)
The source made the active and inactive calls. The calls are words filed in the database; no cut-off is given here.

Experiments:
[1] = molecular target: Serine/threonine-protein kinase mTOR (Homo sapiens, UniProt P42345); test: Inhibition of human full-length Flag-tagged mTOR expressed in HEK293 cells using His6-S6K as substrate measured after 2 hrs in presence of ATP by DELFIA
[2] = molecular target: ALK tyrosine kinase receptor (Homo sapiens) (UniProt Q9UM73); test: Inhibition of recombinant human GST-tagged ALK (1058 to 1620 residues) expressed in insect cells at 2 uM using Tyr 01 as substrate measured after 1 hr by Z'-LYTE assay relative to control; settings: Insect cell
[3] = molecular target: AMP-activated protein kinase (AMPK) alpha-1/beta-1/gamma-1 (Homo sapiens) (UniProt P54619+Q9Y478+Q13131); test: Inhibition of recombinant human full-length GST/His-tagged AMPKalpha1/beta1/gamma1 expressed in insect cells at 2 uM using Ser/Thr 23 as substrate measured after 1 hr by Z'-LYTE assay relative to control; settings: Insect cell
AMP-activated protein kinase (AMPK) alpha-1/beta-1/gamma-1 (Homo sapiens), sequence (P54619 whole entry): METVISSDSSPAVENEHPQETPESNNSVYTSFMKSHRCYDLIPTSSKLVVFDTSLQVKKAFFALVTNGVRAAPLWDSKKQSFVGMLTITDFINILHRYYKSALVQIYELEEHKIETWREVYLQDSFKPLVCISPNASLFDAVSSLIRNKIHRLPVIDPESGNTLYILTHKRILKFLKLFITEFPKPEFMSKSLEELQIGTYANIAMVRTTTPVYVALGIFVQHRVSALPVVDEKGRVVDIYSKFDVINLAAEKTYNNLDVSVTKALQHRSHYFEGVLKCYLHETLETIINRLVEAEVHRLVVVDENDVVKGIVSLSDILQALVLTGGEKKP
AMP-activated protein kinase (AMPK) alpha-1/beta-1/gamma-1 (Homo sapiens), sequence (Q13131 whole entry partner): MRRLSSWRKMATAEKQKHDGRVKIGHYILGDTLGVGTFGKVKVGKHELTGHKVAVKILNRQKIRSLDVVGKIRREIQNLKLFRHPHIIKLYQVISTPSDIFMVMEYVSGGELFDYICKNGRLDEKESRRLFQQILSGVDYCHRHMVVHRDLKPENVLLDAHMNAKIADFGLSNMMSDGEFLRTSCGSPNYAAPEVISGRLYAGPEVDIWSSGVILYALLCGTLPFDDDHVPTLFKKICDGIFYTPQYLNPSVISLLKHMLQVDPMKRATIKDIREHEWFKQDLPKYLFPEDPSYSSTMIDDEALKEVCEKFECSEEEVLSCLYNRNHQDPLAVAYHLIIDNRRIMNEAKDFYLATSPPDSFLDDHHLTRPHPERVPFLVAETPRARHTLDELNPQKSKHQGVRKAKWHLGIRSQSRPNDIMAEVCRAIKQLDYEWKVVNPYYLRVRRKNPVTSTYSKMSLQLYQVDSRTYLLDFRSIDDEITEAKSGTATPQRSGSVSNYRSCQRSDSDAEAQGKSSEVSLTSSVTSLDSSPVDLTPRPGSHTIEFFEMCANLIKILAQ
AMP-activated protein kinase (AMPK) alpha-1/beta-1/gamma-1 (Homo sapiens), sequence (Q9Y478 2-270 partner limits assumed): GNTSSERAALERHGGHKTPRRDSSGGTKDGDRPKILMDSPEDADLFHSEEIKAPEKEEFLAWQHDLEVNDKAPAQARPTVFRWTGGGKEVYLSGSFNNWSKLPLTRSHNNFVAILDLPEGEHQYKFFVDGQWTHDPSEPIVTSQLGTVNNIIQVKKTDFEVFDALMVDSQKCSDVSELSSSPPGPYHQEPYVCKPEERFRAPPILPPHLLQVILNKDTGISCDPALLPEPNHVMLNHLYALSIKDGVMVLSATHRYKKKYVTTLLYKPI

[4] = molecular target: Tyrosine-protein kinase Blk (Homo sapiens) (UniProt P51451); test: Inhibition of recombinant human full-length His-tagged BLK expressed in insect cells at 2 uM using Tyr 01 as substrate measured after 1 hr by Z'-LYTE assay relative to control; settings: Insect cell
Tyrosine-protein kinase Blk (Homo sapiens), sequence (P51451 2-505 limits assumed): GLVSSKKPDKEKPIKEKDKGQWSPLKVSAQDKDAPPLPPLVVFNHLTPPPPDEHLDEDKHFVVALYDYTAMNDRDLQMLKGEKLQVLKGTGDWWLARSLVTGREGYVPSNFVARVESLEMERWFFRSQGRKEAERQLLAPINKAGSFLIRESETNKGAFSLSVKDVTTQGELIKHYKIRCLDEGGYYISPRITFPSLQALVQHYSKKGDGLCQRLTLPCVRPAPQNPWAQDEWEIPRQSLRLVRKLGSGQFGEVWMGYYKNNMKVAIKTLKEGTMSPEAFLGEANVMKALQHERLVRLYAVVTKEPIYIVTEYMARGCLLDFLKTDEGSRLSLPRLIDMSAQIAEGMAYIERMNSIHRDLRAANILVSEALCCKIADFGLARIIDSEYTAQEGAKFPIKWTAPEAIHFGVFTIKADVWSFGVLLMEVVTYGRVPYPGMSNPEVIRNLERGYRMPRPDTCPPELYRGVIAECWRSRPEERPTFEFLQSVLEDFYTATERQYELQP

[5] = molecular target: Tyrosine-protein kinase BTK (Homo sapiens) (UniProt Q06187); test: Inhibition of recombinant human full-length His-tagged BTK expressed in insect cells at 2 uM using Tyr 01 as substrate measured after 1 hr by Z'-LYTE assay relative to control; settings: Insect cell
[6] = molecular target: Calcium/calmodulin-dependent protein kinase type IV (Homo sapiens) (UniProt Q16566); test: Inhibition of recombinant human full-length GST-tagged CAMK4 expressed in E. coli at 2 uM using Ser/Thr 13 as substrate measured after 1 hr by Z'-LYTE assay relative to control
Calcium/calmodulin-dependent protein kinase type IV (Homo sapiens), sequence (Q16566 whole entry, canonical isoform): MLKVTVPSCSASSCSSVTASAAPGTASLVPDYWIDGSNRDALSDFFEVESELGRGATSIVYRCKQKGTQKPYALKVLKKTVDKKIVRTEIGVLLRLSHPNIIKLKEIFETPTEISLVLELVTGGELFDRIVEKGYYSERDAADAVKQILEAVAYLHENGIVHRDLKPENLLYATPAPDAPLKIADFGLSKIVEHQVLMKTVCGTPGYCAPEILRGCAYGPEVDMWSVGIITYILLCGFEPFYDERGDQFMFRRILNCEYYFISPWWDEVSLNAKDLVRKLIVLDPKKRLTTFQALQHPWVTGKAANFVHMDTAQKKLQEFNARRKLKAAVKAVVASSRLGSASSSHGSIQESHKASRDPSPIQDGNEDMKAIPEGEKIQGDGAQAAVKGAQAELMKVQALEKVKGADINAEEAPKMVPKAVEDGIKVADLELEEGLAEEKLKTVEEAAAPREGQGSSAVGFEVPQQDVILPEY

[7] = molecular target: Casein kinase I isoform epsilon (Homo sapiens) (UniProt P49674); test: Inhibition of recombinant human full-length His-tagged CSNK1E expressed in insect cells at 2 uM using Ser/Thr 11 as substrate measured after 1 hr by Z'-LYTE assay relative to control; settings: Insect cell
[8] = molecular target: Casein kinase I isoform gamma-2 (Homo sapiens) (UniProt P78368); test: Inhibition of recombinant human full-length His-tagged CSNK1G2 expressed in baculovirus expression system at 2 uM using Ser/Thr 05 as substrate measured after 1 hr by Z'-LYTE assay relative to control
[9] = molecular target: Ephrin type-B receptor 4 (Homo sapiens) (UniProt P54760); test: Inhibition of recombinant human His-tagged EPHB4 (561-987 residues) expressed in baculovirus expression system at 2 uM using Tyr 01 as substrate measured after 1 hr by Z'-LYTE assay relative to control
[10] = tested on: Receptor-type tyrosine-protein kinase FLT3 (Homo sapiens), P36888 [D835Y]; test: Inhibition of recombinant human His-tagged FLT3 D835Y mutant (564-958 residues) expressed in insect cells at 2 uM using Tyr 02 as substrate measured after 1 hr by Z'-LYTE assay relative to control; settings: Insect cell
[11] = molecular target: Tyrosine-protein kinase Fyn (Homo sapiens) (UniProt P06241); test: Inhibition of recombinant human full-length His-tagged FYN expressed in insect cells at 2 uM using Tyr 02 as substrate measured after 1 hr by Z'-LYTE assay relative to control; settings: Insect cell
Tyrosine-protein kinase Fyn (Homo sapiens), sequence (P06241 2-537 limits assumed): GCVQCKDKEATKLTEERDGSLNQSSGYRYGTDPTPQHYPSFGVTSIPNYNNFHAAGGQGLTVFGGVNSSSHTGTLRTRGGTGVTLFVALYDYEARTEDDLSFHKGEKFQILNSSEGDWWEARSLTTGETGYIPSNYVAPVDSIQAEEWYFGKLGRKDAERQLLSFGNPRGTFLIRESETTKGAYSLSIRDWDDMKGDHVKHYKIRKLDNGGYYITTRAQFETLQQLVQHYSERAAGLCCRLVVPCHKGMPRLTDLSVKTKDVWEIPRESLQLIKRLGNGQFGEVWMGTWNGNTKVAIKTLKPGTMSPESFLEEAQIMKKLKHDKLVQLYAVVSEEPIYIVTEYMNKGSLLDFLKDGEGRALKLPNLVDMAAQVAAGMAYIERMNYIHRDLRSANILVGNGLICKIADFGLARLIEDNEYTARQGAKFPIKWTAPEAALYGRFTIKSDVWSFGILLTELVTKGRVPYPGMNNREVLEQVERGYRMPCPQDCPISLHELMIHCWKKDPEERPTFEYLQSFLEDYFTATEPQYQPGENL

[12] = molecular target: G protein-coupled receptor kinase 6 (Homo sapiens) (UniProt P43250); test: Inhibition of recombinant human full-length GST-tagged GRK6 expressed in insect cells at 2 uM using Ser/Thr 16 as substrate measured after 1 hr by Z'-LYTE assay relative to control; settings: Insect cell
[13] = molecular target: Tyrosine-protein kinase ITK/TSK (Homo sapiens) (UniProt Q08881); test: Inhibition of recombinant human full-length GST-tagged ITK expressed in insect cells at 2 uM using Tyr 01 as substrate measured after 1 hr by Z'-LYTE assay relative to control; settings: Insect cell
Tyrosine-protein kinase ITK/TSK (Homo sapiens), sequence (Q08881 whole entry): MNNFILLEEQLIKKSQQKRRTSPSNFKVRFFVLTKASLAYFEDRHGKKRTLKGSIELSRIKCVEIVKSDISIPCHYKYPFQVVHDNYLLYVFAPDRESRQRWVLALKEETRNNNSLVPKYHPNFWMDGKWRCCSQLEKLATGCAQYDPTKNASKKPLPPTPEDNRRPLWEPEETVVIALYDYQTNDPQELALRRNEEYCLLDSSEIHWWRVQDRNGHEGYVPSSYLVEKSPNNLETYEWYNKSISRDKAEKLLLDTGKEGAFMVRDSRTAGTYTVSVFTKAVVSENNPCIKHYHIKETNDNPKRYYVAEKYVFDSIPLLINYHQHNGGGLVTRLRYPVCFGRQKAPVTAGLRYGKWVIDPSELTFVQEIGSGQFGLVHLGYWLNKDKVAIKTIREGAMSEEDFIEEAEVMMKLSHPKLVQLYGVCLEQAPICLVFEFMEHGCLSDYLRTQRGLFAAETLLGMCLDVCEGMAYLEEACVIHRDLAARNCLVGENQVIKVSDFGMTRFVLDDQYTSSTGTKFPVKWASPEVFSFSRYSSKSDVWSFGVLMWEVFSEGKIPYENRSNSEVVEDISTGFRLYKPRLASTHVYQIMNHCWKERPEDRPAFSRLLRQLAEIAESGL

[14] = molecular target: Mitogen-activated protein kinase 1 (Homo sapiens) (UniProt P28482); test: Inhibition of recombinant human full length GST-tagged MAPK1 expressed in E.coli at 2 uM using Ser/Thr 03 as substrate measured after 1 hr by Z'-LYTE assay relative to control
[15] = molecular target: Mitogen-activated protein kinase 9 (Homo sapiens) (UniProt P45984); test: Inhibition of recombinant human full length His-tagged MAPK9 expressed in baculovirus expression system at 2 uM using Ser/Thr 04 as substrate measured after 1 hr by Z'-LYTE assay relative to control
[16] = molecular target: Megakaryocyte-associated tyrosine-protein kinase (Homo sapiens) (UniProt P42679); test: Inhibition of recombinant human full length His-tagged MATK expressed in E. coli at 2 uM using Tyr 01 as substrate measured after 1 hr by Z'-LYTE assay relative to control
Megakaryocyte-associated tyrosine-protein kinase (Homo sapiens), sequence (P42679 whole entry, the tested form may be a part): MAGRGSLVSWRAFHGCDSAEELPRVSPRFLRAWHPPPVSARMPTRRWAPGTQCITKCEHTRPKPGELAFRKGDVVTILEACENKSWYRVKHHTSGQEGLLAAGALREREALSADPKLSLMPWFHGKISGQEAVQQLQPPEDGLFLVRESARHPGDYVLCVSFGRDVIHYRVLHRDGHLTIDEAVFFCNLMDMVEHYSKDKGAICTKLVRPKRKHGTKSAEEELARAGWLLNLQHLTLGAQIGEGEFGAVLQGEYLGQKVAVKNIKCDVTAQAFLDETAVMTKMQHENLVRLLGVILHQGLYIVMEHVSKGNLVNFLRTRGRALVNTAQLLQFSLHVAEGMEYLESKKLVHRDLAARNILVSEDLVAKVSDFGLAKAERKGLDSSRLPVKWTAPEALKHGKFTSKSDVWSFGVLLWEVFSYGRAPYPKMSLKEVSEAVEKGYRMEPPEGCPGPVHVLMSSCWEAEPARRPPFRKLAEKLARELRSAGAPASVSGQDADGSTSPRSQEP

[17] = molecular target: Serine/threonine-protein kinase PAK 4 (Homo sapiens) (UniProt O96013); test: Inhibition of recombinant human GST-tagged PAK4 (295-591 residues) expressed in insect cells at 2 uM using Ser/Thr 20 as substrate measured after 1 hr by Z'-LYTE assay relative to control; settings: Insect cell
Serine/threonine-protein kinase PAK 4 (Homo sapiens), sequence (O96013 whole entry, looked up, the tested form may be a part): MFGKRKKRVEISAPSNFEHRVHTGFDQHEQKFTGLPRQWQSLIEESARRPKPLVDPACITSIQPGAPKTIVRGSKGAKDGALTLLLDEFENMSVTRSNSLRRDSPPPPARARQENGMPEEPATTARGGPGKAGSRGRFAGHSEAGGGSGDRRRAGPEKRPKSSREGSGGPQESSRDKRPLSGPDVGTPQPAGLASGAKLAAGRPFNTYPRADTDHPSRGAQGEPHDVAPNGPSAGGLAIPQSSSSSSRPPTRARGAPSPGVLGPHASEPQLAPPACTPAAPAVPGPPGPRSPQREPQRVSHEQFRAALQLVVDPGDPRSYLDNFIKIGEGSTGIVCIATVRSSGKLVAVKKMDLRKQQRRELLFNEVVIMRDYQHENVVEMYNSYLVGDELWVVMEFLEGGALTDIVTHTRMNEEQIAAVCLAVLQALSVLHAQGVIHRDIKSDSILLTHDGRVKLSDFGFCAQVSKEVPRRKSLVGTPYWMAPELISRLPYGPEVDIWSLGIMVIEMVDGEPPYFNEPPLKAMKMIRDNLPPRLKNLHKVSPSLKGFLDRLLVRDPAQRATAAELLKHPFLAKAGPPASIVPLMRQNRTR

[18] = molecular target: Serine/threonine-protein kinase pim-2 (Homo sapiens) (UniProt Q9P1W9); test: Inhibition of recombinant human full length GST-tagged PIM2 expressed in insect cells at 2 uM using Ser/Thr 07 as substrate measured after 1 hr by Z'-LYTE assay relative to control; settings: Insect cell
Serine/threonine-protein kinase pim-2 (Homo sapiens), sequence (Q9P1W9 whole entry, looked up): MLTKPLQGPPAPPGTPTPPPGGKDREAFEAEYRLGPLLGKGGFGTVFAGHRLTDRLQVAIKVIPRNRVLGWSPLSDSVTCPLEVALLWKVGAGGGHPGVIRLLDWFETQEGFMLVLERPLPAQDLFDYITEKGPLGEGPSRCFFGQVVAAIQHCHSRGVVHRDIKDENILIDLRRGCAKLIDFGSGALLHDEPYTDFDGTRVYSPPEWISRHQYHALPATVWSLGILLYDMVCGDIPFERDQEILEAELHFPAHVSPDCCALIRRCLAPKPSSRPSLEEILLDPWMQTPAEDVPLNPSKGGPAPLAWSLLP

[19] = molecular target: Serine/threonine-protein kinase D2 (Homo sapiens) (UniProt Q9BZL6); test: Inhibition of recombinant human full length GST-tagged PRKD2 expressed in insect cells at 2 uM using Ser/Thr 17 as substrate measured after 1 hr by Z'-LYTE assay relative to control; settings: Insect cell
[20] = molecular target: Ribosomal protein S6 kinase alpha-6 (Homo sapiens) (UniProt Q9UK32); test: Inhibition of recombinant human full length GST-tagged RPS6KA6 expressed in insect cells at 2 uM using Ser/Thr 20 as substrate measured after 1 hr by Z'-LYTE assay relative to control; settings: Insect cell
[21] = tested on: NCI-H1975; test: Antiproliferative activity against human NCI-H1975 cells assessed as cell growth inhibition incubated for 24 hrs by MTS assay; assay type: functional, cell-based; settings: NCI-H1975, 24 h
[22] = tested on: U-87 MG; test: Induction of apoptosis in human U-87MG cells assessed as increase in G1 phase at 1 micromol/L incubated for 24 hrs by FACS analysis; assay type: functional, cell-based; settings: U-87MG ATCC, dose 1.0 µmol/L
[23] = tested on: NCI-H1975; test: Induction of apoptosis in human NCI-H1975 cells assessed as increase in PARP cleavage at 0.3 to 3 micromol/L incubated for 48 hrs by Western blot analysis; assay type: functional, cell-based; settings: dose 0.3-3 µmol/L
[24] = tested on: MDA-MB-361; test: Induction of apoptosis in human MDA-MB-361 cells assessed as little increase in G1 phase at 5 micromol/L incubated for 12 hrs by FACS analysis relative to control; assay type: functional, cell-based; settings: dose 5.0 µmol/L
[25] = tested on: MDA-MB-361; test: Antitumor activity against human MDA-MB-361 cells xenografted in female nude mouse model assessed as suppression in P-AKT at S473 level at 6 to 12 mg/kg, po qd administered as 5 days on/2 days off regimen for 4 cycles by immunoblot analysis; assay type: functional, organism-based; settings: dose 6-12 mg/kg, time 28.0 day

**Q.** What does the source list for `CNC(=O)Nc1ccc(-c2nc(N3CC4CCC(C3)O4)c3cnn(C4CCC5(CC4)OCCO5)c3n2)cc1`?
**A.** IC50 [1]: 0.19 nM; inhibition [2]: 0%; inhibition [3]: 5%; inhibition [4]: 1%; inhibition [5]: 3%; inhibition [6]: -1%; inhibition [7]: 4%; inhibition [8]: -6%; inhibition [9]: -4%; inhibition [10]: 7%; inhibition [11]: 2%; inhibition [12]: -1%; inhibition [13]: 2%; inhibition [14]: 0%; inhibition [15]: 11%; inhibition [16]: 2%; inhibition [17]: 13%; inhibition [18]: 3%; inhibition [19]: 1%; inhibition [20]: 12%; IC50 [21]: 70 nM; Activity [22]: Active; Activity [23]: Active; Activity [24]: Active; Activity [25]: Active
